US10179355B2, “Bioremediation enhancing agents and methods of use” (JRW BIOREMEDIATION, LLC, priority 2007, dated 2019)

What was measured:
[1] = tested on: dechlorinating bacteria known to convert PCE to ethene; assay: Set A: Ladder of YM, PCE dechlorination microcosms (kinetics, Relative Rate, paired t-test); assay type: cell-based, Dehalococcoides and Dehalobacter spp.
From the text: (§1) Certain contaminated materials (or sites) may contain indigenous microbial communities that are sufficient for complete bioremediation of contaminants. For such sites, there is no need to add microbes unless the indigenous microbes are genetically deficient in achieving the desired clean-up goals. For those sites that are microbiologically limited, microorganisms may be added to the contaminated materials (or sites). In one embodiment, the inoculum may be a mixed culture of halo-respiring bacteria that have been enriched to reach an optimal cell density. These mixed cultures of halo-respiring bacteria may be typically obtained from sediment samples from rivers, streams or any waterways. More specifically, the inoculum used in the Examples was originated from a Sangamon River sediment sample (Lodge Park, Piatt County, Ill.) See, e.g., Brennan, R. A., Sanford, R. A. and Werth, C. J. (2006). “Biodegradation of Tetrachloroethene by Chitin Fermentation Products in a Continuous Flow Column System.” Journal of Environ. Engr., June 665-673. This culture had grown for several years on PCE, anaerobic basal salts medium, Wolfe's vitamin solution and various electron donors including lactate (1-2 millimolar (mM)), formate (4 mM) and chitin using the Volatile Interface Transfer Apparatus (VITA) reactor system at the University of Illinois. Brennan, R. A., and Sanford, R. A. (2002). “Continuous steady-state method using Tenax for delivering tetrachloroethene to chlororespiring bacteria.” Appl. Environ. Microbiol., 68(3), 1464-1467. […] Using 16S rRNA gene-specific primers, both Dehalococcoides and Dehalobacter spp. were detected. Quantitative real-time PCR has been used to determine that approximately 1.65×10^7 Dehalococcoides gene copies were present per ml of culture.
(§2) For purpose of this disclosure, each bottle may be started with a certain amount of PCE. At subsequent times each bottle may be sampled for the degradation daughter products of PCE, namely trichloroethene (TCE), cis-dichloroethene (DCE), vinyl chloride (VC) and ethene, etc. Trans-DCE and 1,1-DCE are also daughter products of PCE, but they may not be detectable under the conditions disclosed here.
(§3) The rate of degradation may be determined by calculating the number of pmoles of chloride ions removed from PCE and subsequently from the amounts of the daughter products generated. The calculation may be performed as follows: Chloride (μmoles)=[…]−4×PCE (μmoles)−3×TCE (pmoles)−2×DCE (μmoles)−VC (μmoles)
The alternative chloride calculation is: Chloride (μmoles)=TCE (μmoles)+2×DCE (μmoles)+3×VC (μmoles)+4×Ethene (μmoles)
(§4) Next, the dechlorination rate may be determined for each bottle at each time by dividing the Chloride generated by the time (days). The data may be then normalized to the lactate control by taking the ratio of Chloride Rate (pmoles/day) and the Lactate Control Chloride Rate (pmoles/day). This ratio is called Relative Rate and is dimensionless.
(§5) As shown in the Examples, a paired t-test has been conducted to calculate the probability that the Relative Rate of one group (i.e. with Nutrient) is greater than the other group (i.e. without Nutrient). The null hypothesis is that the underlying means of the two paired groups are equal. The Probability that one group has higher Relative Rates than the other group is shown in various tables in the Examples.
The following components were used in the system for bioremediating contaminated ground water microcosms in Examples 2-8: • 160 milliliter (ml) stoppered serum bottles • 100 ml of anaerobic culture medium, groundwater containing an excess of bioavailable phosphorus and nitrogen at 0.5 mM Phosphate and 1 mM ammonium degassed with a nitrogen sparge • Nominally 1 gram of limestone • 19.54 micromoles (pmoles) Perchloroethene (PCE) • An excess of various electron donors were utilized • 3 ml of inoculum containing dechlorinating bacteria known to convert PCE to ethene. […]

[2] = tested on: dechlorinating bacteria known to convert PCE to ethene; assay: Set B: Erythorbate ML with and without YM2, PCE dechlorination microcosms (kinetics, Relative Rate); assay type: cell-based, Dehalococcoides and Dehalobacter spp.
From the text: as §1, §2, §3, §4, §5
The following components were used in the system for bioremediating contaminated ground water microcosms in Examples 2-8: • 160 milliliter (ml) stoppered serum bottles • 100 ml of anaerobic culture medium, groundwater containing an excess of bioavailable phosphorus and nitrogen at 0.5 mM Phosphate and 1 mM ammonium degassed with a nitrogen sparge • Nominally 1 gram of limestone • 19.54 micromoles (pmoles) Perchloroethene (PCE) • An excess of various electron donors were utilized • 3 ml of inoculum containing dechlorinating bacteria known to convert PCE to ethene.
The second set of microcosms used Erythorbate ML as the electron donor at 1020 mg/L initial concentration. […]

Q: For `CC(O)C(=O)[O-].[Na+]` (stereo not drawn) [Lactate Control, sodium lactate], which “Average Relative Rate” value [1] is on record?
A: The value was 1.00.

Q: And the “Cl^− Rate ± s.d.” value ([1]; 0 days)?
A: The value was 0.00 ± 0.00 µmol.

Q: And the “Cl^− ± s.d.” value ([1]; 0 days)?
A: The value was 0.00 ± 0.00 µmol.

Q: What about the “DCE ± s.d.” value ([1]; 0 days) of the same compound?
A: Its value is 0.00 ± 0.00 µmol.

Q: And the “Ethene ± s.d.” value ([1]; 0 days)?
A: The value was 0.00 ± 0.00 µmol.

Q: And the “PCE ± s.d.” value ([1]; 0 days)?
A: The value was 19.54 ± 0.00 µmol.

Q: And the “TCE ± s.d.” value ([1]; 0 days)?
A: The value was 0.00 ± 0.00 µmol.

Q: And the “VC ± s.d.” value ([1]; 0 days)?
A: The value was 0.00 ± 0.00 µmol.

Q: And the “Cl^− Rate ± s.d.” value ([1]; 14 days)?
A: The value was 2.58 ± 0.17 µmol.

Q: And the “Cl^− ± s.d.” value ([1]; 14 days)?
A: The value was 36.18 ± 2.43 µmol.

Q: What about the “DCE ± s.d.” value ([1]; 14 days) of the same compound?
A: The value was 0.42 ± 0.03 µmol.

Q: And the “Ethene ± s.d.” value ([1]; 14 days)?
A: The value was 0.00 ± 0.00 µmol.

Q: What about the “PCE ± s.d.” value ([1]; 14 days) of the same compound?
A: The value was 8.45 ± 0.55 µmol.

Q: And the “TCE ± s.d.” value ([1]; 14 days)?
A: Its value is 2.00 ± 0.04 µmol.

Q: And the “VC ± s.d.” value ([1]; 14 days)?
A: The value was 1.33 ± 0.41 µmol.

Q: And the “Cl^− Rate ± s.d.” value ([1]; 35 days)?
A: Its value is 1.33 ± 0.15 µmol.

Q: And the “Cl^− ± s.d.” value ([1]; 35 days)?
A: The value was 46.47 ± 5.25 µmol.

Q: What about the “DCE ± s.d.” value ([1]; 35 days) of the same compound?
A: Its value is 1.60 ± 0.82 µmol.

Q: What about the “Ethene ± s.d.” value ([1]; 35 days) of the same compound?
A: Its value is 0.33 ± 0.29 µmol.

Q: What about the “PCE ± s.d.” value ([1]; 35 days) of the same compound?
A: The value was 4.08 ± 0.81 µmol.

Q: What about the “TCE ± s.d.” value ([1]; 35 days) of the same compound?
A: Its value is 2.77 ± 0.47 µmol.

Q: What about the “VC ± s.d.” value ([1]; 35 days) of the same compound?
A: Its value is 3.86 ± 2.11 µmol.

Q: And the “Cl^− Rate ± s.d.” value ([1]; 53 days)?
A: Its value is 1.06 ± 0.06 µmol.

Q: What about the “Cl^− ± s.d.” value ([1]; 53 days) of the same compound?
A: Its value is 56.17 ± 3.17 µmol.

Q: And the “DCE ± s.d.” value ([1]; 53 days)?
A: The value was 5.31 ± 1.00 µmol.

Q: And the “Ethene ± s.d.” value ([1]; 53 days)?
A: Its value is 0.78 ± 0.79 µmol.

Q: What about the “PCE ± s.d.” value ([1]; 53 days) of the same compound?
A: Its value is 0.33 ± 0.27 µmol.

Q: And the “TCE ± s.d.” value ([1]; 53 days)?
A: The value was 0.52 ± 0.47 µmol.

Q: What about the “VC ± s.d.” value ([1]; 53 days) of the same compound?
A: Its value is 8.52 ± 6.24 µmol.

Q: And the “Relative Rate” value ([1]; bottle 1, 14 days)?
A: The value was 0.92.

Q: What about the “Relative Rate” value ([1]; bottle 1, 35 days) of the same compound?
A: The value was 1.11.

Q: And the “Relative Rate” value ([1]; bottle 1, 53 days)?
A: The value was 0.96.

Q: What about the “Relative Rate” value ([1]; bottle 2, 14 days) of the same compound?
A: Its value is 1.02.

Q: What about the “Relative Rate” value ([1]; bottle 2, 35 days) of the same compound?
A: Its value is 1.00.

Q: And the “Relative Rate” value ([1]; bottle 2, 53 days)?
A: The value was 1.06.

Q: And the “Relative Rate” value ([1]; bottle 3, 14 days)?
A: Its value is 1.05.

Q: And the “Relative Rate” value ([1]; bottle 3, 35 days)?
A: The value was 0.89.

Q: And the “Relative Rate” value ([1]; bottle 3, 53 days)?
A: Its value is 0.98.

Q: And the “Cl^− Rate ± s.d.” value ([2]; 0 days)?
A: Its value is 0.00 ± 0.00 µmol.

Q: What about the “Cl^− ± s.d.” value ([2]; 0 days) of the same compound?
A: Its value is 0.00 ± 0.00 µmol.

Q: And the “DCE ± s.d.” value ([2]; 0 days)?
A: The value was 0.00 ± 0.00 µmol.

Q: And the “Ethene ± s.d.” value ([2]; 0 days)?
A: The value was 0.00 ± 0.00 µmol.

Q: And the “PCE ± s.d.” value ([2]; 0 days)?
A: The value was 19.54 ± 0.00 µmol.

Q: What about the “TCE ± s.d.” value ([2]; 0 days) of the same compound?
A: Its value is 0.00 ± 0.00 µmol.

Q: What about the “VC ± s.d.” value ([2]; 0 days) of the same compound?
A: Its value is 0.00 ± 0.00 µmol.

Q: And the “Cl^− Rate ± s.d.” value ([2]; 21 days)?
A: Its value is 1.61 ± 0.14 µmol.

Q: And the “Cl^− ± s.d.” value ([2]; 21 days)?
A: Its value is 33.88 ± 2.96 µmol.

Q: What about the “DCE ± s.d.” value ([2]; 21 days) of the same compound?
A: Its value is 0.83 ± 0.07 µmol.

Q: What about the “Ethene ± s.d.” value ([2]; 21 days) of the same compound?
A: The value was 0.29 ± 0.08 µmol.

Q: What about the “PCE ± s.d.” value ([2]; 21 days) of the same compound?
A: Its value is 7.22 ± 0.85 µmol.

Q: And the “TCE ± s.d.” value ([2]; 21 days)?
A: The value was 3.15 ± 0.11 µmol.

Q: What about the “VC ± s.d.” value ([2]; 21 days) of the same compound?
A: The value was 4.28 ± 0.44 µmol.

Q: What about the “Cl^− Rate ± s.d.” value ([2]; 35 days) of the same compound?
A: Its value is 1.11 ± 0.12 µmol.

Q: What about the “Cl^− ± s.d.” value ([2]; 35 days) of the same compound?
A: The value was 39.00 ± 4.35 µmol.

Q: What about the “DCE ± s.d.” value ([2]; 35 days) of the same compound?
A: Its value is 2.57 ± 0.34 µmol.

Q: What about the “Ethene ± s.d.” value ([2]; 35 days) of the same compound?
A: The value was 0.53 ± 0.12 µmol.

Q: And the “PCE ± s.d.” value ([2]; 35 days)?
A: Its value is 3.58 ± 0.90 µmol.

Q: What about the “TCE ± s.d.” value ([2]; 35 days) of the same compound?
A: The value was 3.77 ± 0.18 µmol.

Q: And the “VC ± s.d.” value ([2]; 35 days)?
A: Its value is 8.37 ± 0.37 µmol.

Q: What about the “Cl^− Rate ± s.d.” value ([2]; 49 days) of the same compound?
A: Its value is 1.05 ± 0.04 µmol.

Q: And the “Cl^− ± s.d.” value ([2]; 49 days)?
A: Its value is 51.67 ± 1.97 µmol.

Q: And the “DCE ± s.d.” value ([2]; 49 days)?
A: The value was 1.31 ± 0.95 µmol.

Q: What about the “Ethene ± s.d.” value ([2]; 49 days) of the same compound?
A: Its value is 1.05 ± 0.22 µmol.

Q: And the “PCE ± s.d.” value ([2]; 49 days)?
A: Its value is 0.04 ± 0.01 µmol.

Q: What about the “TCE ± s.d.” value ([2]; 49 days) of the same compound?
A: The value was 0.10 ± 0.03 µmol.

Q: And the “VC ± s.d.” value ([2]; 49 days)?
A: The value was 23.41 ± 0.34 µmol.
